# Experimental data as given in patent publication US11229664B2, “Treatment of myelosuppression” (priority 2012, dated 2022).
# Values joined by “and” are separate entries in the source; they are usually repeats but may differ in a detail not shown here. Equal values may be shown once.
# How the values were obtained:
# [1] = A2780 xenograft study: body weight; type: in vivo, athymic female mice; details: Group 2: 48 mg/kg IV QD + 24 mg/kg SC BID, individual mice, listed as PGX ODSH
# Method: (§1) ODSH (50 mg/mL stock concentration) was made by Pyramid Laboratories, Inc. and stored at room temperature until use. As described further below, ODSH was administered either intravenously (IV), at a dose of 48 mg/kg and volume of 10 mL/kg, or subcutaneously (SC) at a dose of 24 mg/kg and volume of 5 ml/kg. Carboplatin obtained from a clinical supplier was stored at 4° C. until use. Carboplatin was administered by intraperitoneal injection (IP) at a dose of 80 mg/kg and volume of 10 mL/kg. Saline solution (0.9% NaCl) was used as a vehicle control for ODSH and administered by the same routes and in the same volumes as ODSH.
# (§2) Human ovarian cancer cell line A2780 was used in the murine xenograft experiments as follows. Approximately 5×10^6 A2780 cells were used per mouse, injected subcutaneously into the right flank in 0.1 mL of 50% Matrigel/50% media. The study was initiated when tumors reached a size of 90-130 mg. 40 mice were used, 10 per treatment regimen. The mice were normal athymic female mice, aged 6-7 weeks, housed in microisolator cages and maintained under pathogen-free conditions. Tumor and body weights were measured three times per week.
# (§3) Four treatment groups were studied.
# [2] = system: clotting time (aPTT); test: aPTT assay, clotting time after administration to a subject; type: in vivo; details: administered to a subject at a (dose equivalent to a) fully-anticoagulating dose of unfractionated heparin; normal about 27 to 35 seconds
# Excerpt: In various preferred embodiments, the PF4-interacting heparinoid is substantially nonanticoagulant. Anti-coagulation activity can be determined using assays known in the art, e.g., activated partial thromboplastin time (aPTT), prothrombin time, anti-Xa clotting and amidolytic assays. See, e.g., U.S. Pat. No. 5,668,118, Example IV; Fryer et al., 1997, J. Pharmacol. Exp. Ther. 282: 208-219, at page 209; Rao et al., 2010, Am. J. Physiol. 299:C97-C110, at page C98; United States Pharmacopeial Convention 1995 (for USP anticoagulant assay and amidolytic assay).
# In contrast to unfractionated heparin, ODSH is substantially non-anticoagulating: administered to a subject at a dose that is equivalent to a fully-anticoagulating dose of unfractionated heparin, the clotting time measured in an aPTT assay is no greater than 45 seconds, and typically in the upper range of normal, where normal clotting time ranges from about 27 to 35 seconds. By comparison, unfractionated heparin administered to a subject at a fully anticoagulant dose causes time to clot to range from about 60 to about 85 seconds in an aPTT assay. Another measure of ODSH's anticoagulant activity is its anti-Xa activity which can be determined in an assay carried out using plasma treated with Russell viper venom. […] Whether or not a heparinoid is substantially non-anticoagulating can be determined using any of the above assays.
# [3] = system: partial thromboplastin time (aPTT); test: Clinical trial: partial thromboplastin time (aPTT) during ODSH infusion; type: in vivo, human; details: for aPTT: individual patients
# Excerpt: As a substantially non-anticoagulant heparinoid, ODSH can be administered at a dose that is greater than the fully anticoagulant dose of unfractionated heparin, without concern for anticoagulant effect, as shown in the Results below.
# Lack of anticoagulation by ODSH was confirmed by monitoring partial thromboplastin time (aPTT) during ODSH infusion, at days 1, 3, 10, and 17 of treatment cycle 1. Normal range of aPTT is about 27 to 35 seconds+/−15%.
# [4] = system: Human ovarian cancer cell line A2780; test: A2780 human ovarian cancer xenograft model: tumor weight; type: in vivo, athymic female mice; parameters: key to Mouse status printed in place of tumor weight: FD = Found Dead; TS = Terminal Sacrifice; details: for Tumor weight, individual mice: listed as PGX ODSH; for Mouse status printed in place of tumor weight: Groups 2 and 3
# Method: as §1, §2, §3
substance,measurement,setting,value
"substantially 2-O, 3-O desulfated heparin [ODSH]","Individual weights, Day 1 Weight",[1]; Day 1 (baseline),22.1 g and 20.3 g and 21.0 g and 21.8 g and 21.6 g and 21.4 g and 19.8 g (2×) and 20.9 g and 19.7 g
same,Day 4 Weight change,[1]; Day 4,3.6% and 1.5% and −0.5% and −1.8% and 6.5% and 1.9% and −1.0% and 5.6% and 10.0% and −2.5%
same,"Individual weights, Day 4 Weight",[1]; Day 4,22.9 g and 20.6 g and 20.9 g (2×) and 21.4 g and 23.0 g (2×) and 21.8 g and 19.6 g and 19.2 g
same,Day 6 Weight change,[1]; Day 6,5.0% and 1.5% and 1.0% and −1.4% and 13.4% and 2.8% and 2.0% and 7.6% and 8.1% and −2.5%
same,"Individual weights, Day 6 Weight",[1]; Day 6,23.2 g and 20.6 g and 21.2 g and 21.5 g and 24.5 g and 22.0 g and 20.2 g and 21.3 g and 22.6 g and 19.2 g
same,Day 8 Weight change,[1]; Day 8,5.0% and 5.4% and 2.9% and 2.3% and 16.2% and 5.6% (2×) and 12.1% and 6.7% and 2.0%
same,"Individual weights, Day 8 Weight",[1]; Day 8,23.2 g and 21.4 g and 21.6 g and 22.3 g (2×) and 25.1 g and 22.6 g and 20.9 g and 22.2 g and 20.1 g
same,Day 11 Weight change,[1]; Day 11,4.5% and 10.3% and 4.8% (2×) and 4.1% and 17.6% and 8.4% and 5.6% and 14.6% and 6.1%
same,"Individual weights, Day 11 Weight",[1]; Day 11,23.1 g and 22.4 g and 22.0 g and 22.7 g (2×) and 25.4 g and 23.2 g and 20.9 g (2×) and 21.9 g
same,Day 14 Weight change,[1]; Day 14,10.0% and 14.3% and 8.6% and 8.7% and 23.6% and 11.2% (2×) and 11.1% and 17.2% and 9.6%
same,"Individual weights, Day 14 Weight",[1]; Day 14,24.3 g and 23.2 g (2×) and 22.8 g and 23.7 g and 26.7 g and 23.8 g and 22.0 g and 22.9 g and 21.9 g
same,Day 18 Weight change,[1]; Day 18,5.9% and 14.3% and 11.0% and 6.4% and 22.2% and 11.2% and 1.0% and 10.1% and 10.0% and 7.6%
same,"Individual weights, Day 18 Weight",[1]; Day 18,23.4 g and 23.2 g (2×) and 23.3 g and 26.4 g and 23.8 g and 20.0 g and 21.8 g and 23.0 g and 21.2 g
same,Day 21 Weight change,[1]; Day 21,7.2% and 18.2% and 10.5% and 10.1% and 22.2% and 12.6% and 3.0% and 10.6% and 9.6% and 11.2%
same,"Individual weights, Day 21 Weight",[1]; Day 21,23.7 g and 24.0 g (2×) and 23.2 g and 26.4 g and 24.1 g and 20.4 g and 21.9 g (2×) and 22.9 g
same,Day 25 Weight change,[1]; Day 25,19.7% and 31.0% and 9.6% and 18.2% and 14.8%
same,"Individual weights, Day 25 Weight",[1]; Day 25,24.3 g and 28.3 g and 21.7 g and 23.4 g and 24.0 g
same,Day 28 Weight change,[1]; Day 28,23.2% and 32.9% and 15.7% and 20.2% and 15.8%
same,"Individual weights, Day 28 Weight",[1]; Day 28,29.0 g and 28.7 g and 22.9 g and 23.8 g and 24.2 g
same,Clotting time in aPTT assay,[2],≤ 45 s
same,Anticoagulation as determined by partial thromboplastin time (aPTT),[3]; 4 mg/kg bolus + 0.375 mg/kg/hr 48 h,did not result in anticoagulation
same,aPTT,[3]; Cycle 1 Day 1,29 seconds (2×) and 24 seconds and 36 seconds and 33 seconds and 28 seconds and 26 seconds and 25 seconds and 27 seconds
same,aPTT,[3]; Cycle 1 Day 3,28 seconds and 33 seconds (2×) and 43 seconds and 38 seconds and 31 seconds (3×) and 34 seconds
same,aPTT,[3]; Cycle 1 Day 10,34 seconds (2×) and 32 seconds and 38 seconds and 35 seconds and 31 seconds (2×) and 33 seconds and 36 seconds
same,aPTT,[3]; Cycle 1 Day 17,34 seconds and 28 seconds and 30 seconds (2×) and 42 seconds and 36 seconds and 33 seconds and 29 seconds
same,"Tumor weight, Mean",[4]; Day 1,107.0 mg
same,"Tumor weight, Median",[4]; Day 1,105.5 mg
same,"Tumor weight, individual mice","[4]; Day 1, Mouse 1-10",104 mg (2×) and 107 mg and 109 mg and 112 mg and 120 mg and 126 mg and 90 mg and 96 mg and 101 mg
same,"Tumor weight, Mean",[4]; Day 4,146.8 mg
same,"Tumor weight, Median",[4]; Day 4,134.2 mg
same,"Tumor weight, individual mice","[4]; Day 4, Mouse 1-10",159 mg and 111 mg and 195 mg and 131 mg and 173 mg and 124 mg and 200 mg and 121 mg and 117 mg and 138 mg
same,"Tumor weight, Mean",[4]; Day 6,240.3 mg
same,"Tumor weight, Median",[4]; Day 6,238.2 mg
same,"Tumor weight, individual mice","[4]; Day 6, Mouse 1-10",309 mg and 215 mg and 347 mg and 264 mg and 235 mg and 139 mg and 282 mg and 241 mg and 171 mg and 201 mg
same,"Tumor weight, Mean",[4]; Day 8,382.2 mg
same,"Tumor weight, Median",[4]; Day 8,392.0 mg
same,"Tumor weight, individual mice","[4]; Day 8, Mouse 1-10",449 mg and 321 mg and 639 mg and 413 mg and 411 mg and 183 mg and 422 mg and 373 mg and 315 mg and 296 mg
same,"Tumor weight, Mean",[4]; Day 11,609.6 mg
same,"Tumor weight, Median",[4]; Day 11,585.4 mg
same,"Tumor weight, individual mice","[4]; Day 11, Mouse 1-10",816 mg and 366 mg and 910 mg and 653 mg and 536 mg and 349 mg and 811 mg and 635 mg and 491 mg and 529 mg
same,"Tumor weight, Mean",[4]; Day 14,984.4 mg
same,"Tumor weight, Median",[4]; Day 14,949.7 mg
same,"Tumor weight, individual mice","[4]; Day 14, Mouse 1-10","1,303 mg and 670 mg and 1,499 mg and 1,032 mg and 868 mg and 559 mg and 1,253 mg and 1,084 mg and 815 mg and 762 mg"
same,"Tumor weight, Mean",[4]; Day 18,"1,501.7 mg"
same,"Tumor weight, Median",[4]; Day 18,"1,591.5 mg"
same,"Tumor weight, individual mice","[4]; Day 18, Mouse 1-10","1,796 mg and 1,150 mg and 1,836 mg and 1,568 mg and 1,714 mg and 891 mg and 1,869 mg and 1,615 mg and 1,157 mg and 1,422 mg"
same,"Tumor weight, Mean",[4]; Day 21,"2,072.6 mg"
same,"Tumor weight, Median",[4]; Day 21,1952.5 mg
same,"Tumor weight, individual mice","[4]; Day 21, Mouse 1-10","2,692 mg and 1,467 mg and 2,639 mg and 1,852 mg and 1,880 mg and 1,289 mg and 2,560 mg and 2,642 mg and 1,681 mg and 2,025 mg"
same,"Tumor weight, Mean",[4]; Day 25,"2,343.5 mg"
same,"Tumor weight, Median",[4]; Day 25,"2,422.8 mg"
same,"Tumor weight, individual mice","[4]; Day 25, Mouse 1-10","2,414 mg and 2,464 mg and 2,599 mg and 1,817 mg and 2,423 mg"
same,Mouse status printed in place of tumor weight,"[4]; Day 25, individual mice",TS
same,"Tumor weight, Mean",[4]; Day 28,"3,349.0 mg"
same,"Tumor weight, Median",[4]; Day 28,"3,251.6 mg"
same,"Tumor weight, individual mice","[4]; Day 28, Mouse 1-10","3,909 mg and 3,784 mg and 3,252 mg and 2,671 mg and 3,129 mg"
same,Mouse status printed in place of tumor weight,"[4]; Day 28, individual mice",TS
